Assays:
Assay in all cases: pIC50, kinobeads binding competition
Settings in all cases: cell material: Jurkat lysate
[1] = target: UniProt Q16513
[2] = target: TESK1 (UniProt Q15569)
[3] = target: ACVR2B (UniProt Q13705)
[4] = target: T1, UniProt O94768
T1 sequence (whole entry): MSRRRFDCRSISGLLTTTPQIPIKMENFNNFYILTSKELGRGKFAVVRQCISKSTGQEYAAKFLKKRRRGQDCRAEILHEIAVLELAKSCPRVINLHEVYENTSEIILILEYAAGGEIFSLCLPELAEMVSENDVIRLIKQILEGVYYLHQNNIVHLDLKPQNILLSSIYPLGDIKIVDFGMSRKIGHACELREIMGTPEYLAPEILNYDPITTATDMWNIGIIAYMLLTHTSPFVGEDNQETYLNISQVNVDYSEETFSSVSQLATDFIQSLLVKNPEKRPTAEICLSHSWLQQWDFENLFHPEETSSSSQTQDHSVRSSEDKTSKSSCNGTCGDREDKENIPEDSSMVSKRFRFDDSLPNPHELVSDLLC

[5] = target: UniProt Q9P289
[6] = target: T2, UHMK1 (UniProt Q8TAS1)
T2 sequence (whole entry): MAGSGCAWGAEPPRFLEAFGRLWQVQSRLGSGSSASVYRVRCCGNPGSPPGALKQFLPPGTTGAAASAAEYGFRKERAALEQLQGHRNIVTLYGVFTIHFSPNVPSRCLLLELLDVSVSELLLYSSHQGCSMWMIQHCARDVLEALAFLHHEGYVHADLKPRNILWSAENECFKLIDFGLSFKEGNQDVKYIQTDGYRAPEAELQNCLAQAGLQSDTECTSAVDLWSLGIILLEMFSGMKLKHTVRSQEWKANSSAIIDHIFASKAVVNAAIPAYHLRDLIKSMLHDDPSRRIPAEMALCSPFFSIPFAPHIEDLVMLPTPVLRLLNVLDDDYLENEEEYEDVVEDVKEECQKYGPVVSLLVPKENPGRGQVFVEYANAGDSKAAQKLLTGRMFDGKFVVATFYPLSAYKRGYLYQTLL

[7] = target: T3, UniProt O15530
T3 sequence (whole entry): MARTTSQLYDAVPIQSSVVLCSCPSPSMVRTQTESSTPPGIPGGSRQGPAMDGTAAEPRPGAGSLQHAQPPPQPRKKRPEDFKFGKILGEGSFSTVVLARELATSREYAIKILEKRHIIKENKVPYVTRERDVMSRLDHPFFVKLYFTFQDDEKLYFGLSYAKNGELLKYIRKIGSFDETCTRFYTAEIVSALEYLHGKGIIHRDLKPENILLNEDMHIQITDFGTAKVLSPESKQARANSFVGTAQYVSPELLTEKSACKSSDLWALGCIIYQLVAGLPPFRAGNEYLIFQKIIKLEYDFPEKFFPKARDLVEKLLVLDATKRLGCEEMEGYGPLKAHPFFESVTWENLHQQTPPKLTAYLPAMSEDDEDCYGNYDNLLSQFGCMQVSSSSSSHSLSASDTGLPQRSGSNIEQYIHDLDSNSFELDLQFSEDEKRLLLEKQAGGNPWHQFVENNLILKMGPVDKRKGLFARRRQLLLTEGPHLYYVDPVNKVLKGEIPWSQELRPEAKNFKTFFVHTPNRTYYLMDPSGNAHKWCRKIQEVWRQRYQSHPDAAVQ

[8] = target: SLK (UniProt Q9H2G2)
[9] = target: TNIK (UniProt Q9UKE5)
[10] = target: SRPK2 (UniProt P78362)
[11] = target: MAST4 (UniProt O15021)
[12] = target: UniProt Q16512
[13] = target: CIT (UniProt O14578)
[14] = target: T4, UniProt O14920
T4 sequence (whole entry): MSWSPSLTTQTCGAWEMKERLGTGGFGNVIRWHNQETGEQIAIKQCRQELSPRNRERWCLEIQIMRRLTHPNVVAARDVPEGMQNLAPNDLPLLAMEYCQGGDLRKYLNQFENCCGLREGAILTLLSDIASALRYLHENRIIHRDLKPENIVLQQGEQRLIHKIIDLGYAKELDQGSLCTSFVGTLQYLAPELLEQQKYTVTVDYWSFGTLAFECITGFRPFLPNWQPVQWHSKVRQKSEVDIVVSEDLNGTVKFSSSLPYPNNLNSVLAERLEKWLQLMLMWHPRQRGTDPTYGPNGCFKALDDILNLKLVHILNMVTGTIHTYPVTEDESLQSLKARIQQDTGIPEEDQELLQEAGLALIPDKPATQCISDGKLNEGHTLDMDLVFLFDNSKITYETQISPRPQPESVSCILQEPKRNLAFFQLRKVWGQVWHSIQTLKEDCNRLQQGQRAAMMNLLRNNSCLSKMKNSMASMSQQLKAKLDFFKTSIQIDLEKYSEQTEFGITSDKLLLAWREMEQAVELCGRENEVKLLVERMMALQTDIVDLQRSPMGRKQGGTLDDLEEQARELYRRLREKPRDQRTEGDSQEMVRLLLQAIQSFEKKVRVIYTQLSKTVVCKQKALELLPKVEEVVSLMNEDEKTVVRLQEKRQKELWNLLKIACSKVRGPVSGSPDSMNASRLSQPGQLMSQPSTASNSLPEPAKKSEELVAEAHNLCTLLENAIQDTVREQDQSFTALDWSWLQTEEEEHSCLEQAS

Sequence of ACVR2B (Q13705 whole entry): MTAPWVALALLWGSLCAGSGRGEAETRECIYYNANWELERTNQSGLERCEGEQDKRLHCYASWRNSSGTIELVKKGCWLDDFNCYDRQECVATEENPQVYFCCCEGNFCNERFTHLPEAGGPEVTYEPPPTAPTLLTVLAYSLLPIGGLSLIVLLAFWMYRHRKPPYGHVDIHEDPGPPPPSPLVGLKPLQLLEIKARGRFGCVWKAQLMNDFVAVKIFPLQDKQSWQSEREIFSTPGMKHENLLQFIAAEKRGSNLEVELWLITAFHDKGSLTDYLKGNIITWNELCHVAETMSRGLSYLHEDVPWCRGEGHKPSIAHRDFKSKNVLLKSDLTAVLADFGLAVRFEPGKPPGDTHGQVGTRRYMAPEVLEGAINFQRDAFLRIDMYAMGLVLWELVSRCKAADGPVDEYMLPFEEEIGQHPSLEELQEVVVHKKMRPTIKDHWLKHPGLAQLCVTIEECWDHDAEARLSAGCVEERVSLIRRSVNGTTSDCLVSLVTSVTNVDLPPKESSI
Sequence of TESK1 (Q15569 whole entry, looked up): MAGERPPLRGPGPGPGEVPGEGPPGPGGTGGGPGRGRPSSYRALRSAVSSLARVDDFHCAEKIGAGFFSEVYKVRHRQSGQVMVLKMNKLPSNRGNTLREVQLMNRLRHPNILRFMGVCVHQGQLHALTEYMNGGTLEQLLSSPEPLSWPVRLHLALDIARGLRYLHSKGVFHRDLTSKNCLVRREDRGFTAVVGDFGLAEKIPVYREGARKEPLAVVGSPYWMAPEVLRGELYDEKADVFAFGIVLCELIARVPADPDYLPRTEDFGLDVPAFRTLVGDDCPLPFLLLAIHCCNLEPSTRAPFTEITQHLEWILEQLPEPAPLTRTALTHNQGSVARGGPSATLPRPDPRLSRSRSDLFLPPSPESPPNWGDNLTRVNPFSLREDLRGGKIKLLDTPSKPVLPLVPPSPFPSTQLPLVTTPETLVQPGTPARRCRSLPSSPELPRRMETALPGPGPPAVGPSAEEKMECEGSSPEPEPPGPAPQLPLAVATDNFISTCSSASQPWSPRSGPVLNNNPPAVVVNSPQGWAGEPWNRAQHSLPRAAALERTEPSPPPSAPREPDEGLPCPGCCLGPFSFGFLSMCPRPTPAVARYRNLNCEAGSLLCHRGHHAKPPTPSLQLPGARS
Sequence of SLK (Q9H2G2 whole entry, looked up): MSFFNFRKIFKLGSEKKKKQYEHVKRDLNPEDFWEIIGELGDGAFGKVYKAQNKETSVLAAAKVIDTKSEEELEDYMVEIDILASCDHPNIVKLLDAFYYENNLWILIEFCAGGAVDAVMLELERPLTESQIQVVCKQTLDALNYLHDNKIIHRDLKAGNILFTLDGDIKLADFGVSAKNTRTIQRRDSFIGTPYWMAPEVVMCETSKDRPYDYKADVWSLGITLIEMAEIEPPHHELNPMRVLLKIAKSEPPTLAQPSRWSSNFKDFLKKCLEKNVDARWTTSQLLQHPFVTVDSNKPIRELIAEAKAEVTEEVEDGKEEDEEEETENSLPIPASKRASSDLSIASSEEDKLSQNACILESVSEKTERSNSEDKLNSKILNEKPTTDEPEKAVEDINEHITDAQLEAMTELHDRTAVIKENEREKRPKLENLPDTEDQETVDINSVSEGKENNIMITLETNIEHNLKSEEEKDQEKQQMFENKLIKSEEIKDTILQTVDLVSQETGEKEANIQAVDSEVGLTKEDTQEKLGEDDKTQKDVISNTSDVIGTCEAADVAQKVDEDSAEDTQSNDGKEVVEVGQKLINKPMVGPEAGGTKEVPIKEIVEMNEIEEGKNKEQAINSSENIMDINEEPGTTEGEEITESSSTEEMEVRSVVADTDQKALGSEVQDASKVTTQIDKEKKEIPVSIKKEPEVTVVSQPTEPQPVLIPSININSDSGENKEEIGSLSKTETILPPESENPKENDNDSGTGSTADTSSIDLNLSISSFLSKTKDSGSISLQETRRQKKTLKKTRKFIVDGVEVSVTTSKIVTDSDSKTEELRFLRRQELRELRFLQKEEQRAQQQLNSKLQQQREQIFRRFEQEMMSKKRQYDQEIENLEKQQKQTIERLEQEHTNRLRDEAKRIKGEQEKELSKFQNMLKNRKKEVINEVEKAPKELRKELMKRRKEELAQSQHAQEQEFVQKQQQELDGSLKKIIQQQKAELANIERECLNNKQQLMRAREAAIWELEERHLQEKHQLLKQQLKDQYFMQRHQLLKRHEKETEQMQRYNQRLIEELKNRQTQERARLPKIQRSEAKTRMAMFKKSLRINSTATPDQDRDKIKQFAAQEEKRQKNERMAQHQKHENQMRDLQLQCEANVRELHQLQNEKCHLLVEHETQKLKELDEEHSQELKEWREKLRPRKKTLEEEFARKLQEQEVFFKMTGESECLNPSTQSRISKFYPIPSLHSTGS
Sequence of UniProt Q9P289 (Q9P289 whole entry, looked up): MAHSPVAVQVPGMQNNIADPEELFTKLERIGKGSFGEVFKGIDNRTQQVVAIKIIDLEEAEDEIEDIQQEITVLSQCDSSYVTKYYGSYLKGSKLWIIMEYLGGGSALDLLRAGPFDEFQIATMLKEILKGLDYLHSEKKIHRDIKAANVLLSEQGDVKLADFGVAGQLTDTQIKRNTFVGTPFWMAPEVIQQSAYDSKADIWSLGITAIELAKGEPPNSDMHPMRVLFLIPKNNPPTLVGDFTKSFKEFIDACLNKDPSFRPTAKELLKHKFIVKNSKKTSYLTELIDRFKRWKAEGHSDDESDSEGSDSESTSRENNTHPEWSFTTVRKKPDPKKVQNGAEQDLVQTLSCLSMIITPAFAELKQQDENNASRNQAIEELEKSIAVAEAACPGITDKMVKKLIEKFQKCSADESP
Sequence of UniProt Q16513 (Q16513 whole entry, looked up): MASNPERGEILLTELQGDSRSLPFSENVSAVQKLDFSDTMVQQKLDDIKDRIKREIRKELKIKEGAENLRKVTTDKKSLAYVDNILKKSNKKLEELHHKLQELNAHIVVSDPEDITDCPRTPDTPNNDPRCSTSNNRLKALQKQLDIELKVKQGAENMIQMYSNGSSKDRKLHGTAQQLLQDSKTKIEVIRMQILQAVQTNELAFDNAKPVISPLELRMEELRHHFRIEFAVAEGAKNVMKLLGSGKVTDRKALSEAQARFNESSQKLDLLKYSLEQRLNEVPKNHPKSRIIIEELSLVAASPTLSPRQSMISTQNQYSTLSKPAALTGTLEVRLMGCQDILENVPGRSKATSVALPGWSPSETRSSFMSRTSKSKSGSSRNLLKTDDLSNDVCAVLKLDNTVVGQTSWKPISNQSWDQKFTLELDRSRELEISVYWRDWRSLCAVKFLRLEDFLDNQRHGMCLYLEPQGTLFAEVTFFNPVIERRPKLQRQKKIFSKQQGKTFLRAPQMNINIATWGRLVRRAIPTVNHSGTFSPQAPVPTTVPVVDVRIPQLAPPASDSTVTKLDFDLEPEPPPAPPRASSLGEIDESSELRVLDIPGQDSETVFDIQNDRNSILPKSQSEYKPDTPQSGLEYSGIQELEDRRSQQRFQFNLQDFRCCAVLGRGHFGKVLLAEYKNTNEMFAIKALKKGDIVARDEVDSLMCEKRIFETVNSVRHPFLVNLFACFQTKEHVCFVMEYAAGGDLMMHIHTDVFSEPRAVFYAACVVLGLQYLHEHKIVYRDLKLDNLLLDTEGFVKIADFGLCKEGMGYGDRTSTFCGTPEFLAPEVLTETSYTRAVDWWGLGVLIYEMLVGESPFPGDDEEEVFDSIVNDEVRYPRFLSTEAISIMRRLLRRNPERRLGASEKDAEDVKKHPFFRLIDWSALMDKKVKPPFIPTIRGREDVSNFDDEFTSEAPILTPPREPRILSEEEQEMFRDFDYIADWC
Sequence of SRPK2 (P78362 whole entry, looked up): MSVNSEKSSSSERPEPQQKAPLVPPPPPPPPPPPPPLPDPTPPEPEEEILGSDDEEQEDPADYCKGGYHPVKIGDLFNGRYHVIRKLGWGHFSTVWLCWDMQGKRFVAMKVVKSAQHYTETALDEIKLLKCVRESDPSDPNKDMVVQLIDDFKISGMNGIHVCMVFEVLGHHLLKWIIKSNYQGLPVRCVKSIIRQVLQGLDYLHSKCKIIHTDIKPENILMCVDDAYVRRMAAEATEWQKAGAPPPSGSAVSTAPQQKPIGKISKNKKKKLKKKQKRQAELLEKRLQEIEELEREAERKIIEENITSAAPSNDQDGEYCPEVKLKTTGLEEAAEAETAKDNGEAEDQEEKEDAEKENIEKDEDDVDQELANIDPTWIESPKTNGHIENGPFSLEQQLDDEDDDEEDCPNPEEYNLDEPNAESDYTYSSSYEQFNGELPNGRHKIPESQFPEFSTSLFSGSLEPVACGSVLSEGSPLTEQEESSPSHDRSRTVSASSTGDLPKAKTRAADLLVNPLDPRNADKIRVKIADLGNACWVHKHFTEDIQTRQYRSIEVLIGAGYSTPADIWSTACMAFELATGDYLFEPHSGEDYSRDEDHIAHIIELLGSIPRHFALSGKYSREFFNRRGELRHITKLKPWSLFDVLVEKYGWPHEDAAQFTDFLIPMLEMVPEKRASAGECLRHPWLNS

pIC50 [1]: < 4.52 | pIC50 [2]: < 4.52 | pIC50 [3]: < 4.52 | pIC50 [4]: < 4.52 | pIC50 [5]: < 4.52 | pIC50 [6]: < 4.52 | pIC50 [7]: < 4.52 | pIC50 [8]: < 4.52 | pIC50 [9]: < 4.52 | pIC50 [10]: < 4.52 | pIC50 [11]: < 4.52 | pIC50 [12]: < 4.52 | pIC50 [13]: < 4.52 | pIC50 [14]: < 4.52
Structure (SMILES): CCc1cnn2c(NCc3ccc[n+]([O-])c3)cc(N3CCCC[C@H]3CCO)nc12 [dinaciclib]

Reference: the supplement of paper PMC12076712
